Source: patent US20260364124A1, “ANTI-C. DIFFICILE SMALL MOLECULE METABOLITES FROM DIET AND GUT MICROBIOME” (The Children's Medical Center Corporation, priority 2023, published 2026)

System: B. uniformis
Assay: In vitro aglycone liberation by wildtype B. uniformis (LC-MS)
Set-up: species or system Bacteroides uniformis ATCC 8492
Conditions: role: substrate; B. uniformis cultivated with polydatin (FIG. 2)
Description: Comparative LC-MS EICs (Extracted Ion Chromatogram) of methanol-water extracts of bacterial cultures supplemented with each polyphenolic glycoside after eight hours are provided. The trace labeled “A” corresponds to the EIC of each glycoside, and the trace labeled “B” corresponds to the EIC of each aglycone. The portion of the trace “B” peak overlapping the trace “A” peak corresponds to the aglycone detected from fragmentation of the glycoside at the ionization source and is a technical artifact.
FIGS. 5A and 5B show microbiome-mediated polyphenol aglycone liberation. […] Step 2: Spent media was filter-sterilized. Step 3: C. difficile was grown in spent media from either vehicle or polydatin (top).
In vitro aglycone liberation: All B. uniformis strains were grown on brain-heart-infusion supplemented with hemin (50 mg/L) and vitamin K1 (0.25 mg/L) (BHIS) agar plates or in basal media (BSG; proteose peptone (20 g/L), yeast (5 g/L), NaCl (5 g/L), glucose (5 g/L), potassium phosphate dibasic (5 g/L), cysteine (0.5 g/L), hemin (50 mg/L), and vitamin K1 (0.25 mg/L). All isolates were recovered on and grown in pre-reduced media in a Coy anaerobic chamber (Coy Labs).
To assess the capacity of Bacteroides to liberate aglycones from their parent polyphenolic glycosides, B. uniformis ATCC 8492 WT and AgshD were recovered on a BHIS agar plate and incubated anaerobically at 37 °C for 48 h. A starter culture (1 mL) of BSG was inoculated with each isolate and grown for 15 h. This starter culture was then used to inoculate a BSG sub-culture (1 mL) at a final dilution of 1:10. […]
For polyphenolic glycoside and aglycone-containing samples, samples were dried under nitrogen flow and resuspended in 50 μl of methanol 50% in water. […] Samples were quantified on a QEplus mass spectrometer coupled to an Ultimate 3000 LC (Thermo fisher). […] Quantification was performed using Tracefinder (Thermo fisher), using the ratio of the area under the peak for each compound and of the internal standard, using the accurate mass of the [M−H]^− ions.

OC[C@H]1O[C@@H](Oc2cc(O)cc(/C=C/c3ccc(O)cc3)c2)[C@H](O)[C@@H](O)[C@@H]1O [polydatin]
liberation of resveratrol from polydatin: liberated resveratrol
